Laboratory results reported in patent publication US6403623B1, “Heterocyclic antituberculosis agents” (Unuversity of Notre Dame du Lac, priority 1999, dated 2002).

Tested on: M. tuberculosis H37R
Experiment: microbe, parasite or virus in culture
Type: cell-based
Conditions: Mycobacterium tuberculosis, in vitro, concentration of 12.5 μg/mL, read-out: inhibition of the growth of M. tuberculosis H37R

For `O=C(OCc1ccccc1)[C@@H]1COC(c2ccccc2OCc2ccccc2)=N1` [Example 1, (S)-Benzyl 2-[2-(Benzyloxy)phenyl]-2-oxazoline-4-carboxylate], the inhibition at 12.5 µg/mL was 98%.
